Earlier results as cited in PubChem BioAssay AID1259409 (Chemical Carcinogenesis Research Information System (CCRIS), 2018).

System: rodent chemically induced tumor inhibition, incidence and multiplicity
Experiment: CCRIS tumor inhibitor studies
Conditions: Dose [Inhibitor]: 0

## O=c1oc2c(O)c(O)cc3c(=O)oc4c(O)c(O)cc1c4c23
Carcinogen: 4-(METHYLNITROSOAMINO-1-(PYRIDYL)-1-BUTANONE, 64091-91-4, 4 G/KG DIET BEGINNING 2 WK PRIOR TO CARCINOGEN DOSE (STUDY DURATION: 18 WK), Route [Inhibitor]: ORAL, Species: MOUSE, Strain/Sex: STRAIN-A/FEMALE, Target Tissue: Type of Lesion: LUNG: ADENOMA, Dose [Carcinogen]: 2 MG IN 0.2 ML OF 0.9% NACL ONCE, Promoter: NONE USED
  tumour outcome (control, treated, inhibition, significance): 100%, 100%, 0%, not significant
Carcinogen: 4-METHYLNITROSOAMINO-1-(PYRIDYL)-1-BUTANONE, 64091-91-4, 4 G/KG DIET BEGINNING 2 WK PRIOR TO CARCINOGEN DOSE AND CONTINUING FOR STUDY DURATION (STUDY DURATION: 18 WK), Route [Inhibitor]: ORAL, Species: MOUSE, Strain/Sex: STRAIN-A/FEMALE, Target Tissue: Type of Lesion: LUNG: ADENOMA, Dose [Carcinogen]: 62.4 UG/ML DRINKING WATER FOR 7 WK (TOTAL DOSE 9.4 MG), Promoter: NONE USED
  tumour outcome (control, treated, inhibition, significance): 100%, 96%, 4%, not calculated
Carcinogen: 4-NITROQUINOLINE-1-OXIDE, 56-57-5, 400 PPM IN DIET FOR 7 WK BEGINNING 1 WK PRIOR TO START OF CARCINOGEN TREATMENT (STUDY DURATION: 32 WK), Route [Inhibitor]: ORAL, Species: RAT, Strain/Sex: F344/MALE, Target Tissue: Type of Lesion: TONGUE: PAPILLOMA, Dose [Carcinogen]: 20 PPM IN DRINKING WATER FOR 5 WK, Promoter: NONE USED
  tumour outcome (control, treated, inhibition, significance): 1/15 (7%), 0/15 (0%), 100%, not significant
Carcinogen: 7,12-DIMETHYLBENZ[A]ANTHRACENE, 57-97-6', 1000 PPM IN DIET FOR DURATION OF STUDY BEGINNING CONCURRENTLY WITH CARCINOGEN TREATMENT (STUDY DURATION: 42 WK0, Route [Inhibitor]: ORAL, Species: FISH, Strain/Sex: RAINBOW TROUT/ MALE, FEMALE, Target Tissue: Type of Lesion: LIVER: TUMOR, Dose [Carcinogen]: 750 PPM IN DIET FOR 7 WK, Promoter: NONE USED
  tumour outcome (control, treated, inhibition, significance): 6%, 9%, -50%, not significant
Carcinogen: 7,12-DIMETHYLBENZ[A]ANTHRACENE, 57-97-6, 5 UMOL IN 0.4 ML ACETONE 20 MIN PRIOR TO EACH PROMOTER DOSE (STUDY DURATION: 47 WK), Route [Inhibitor]: DERMAL, Species: MOUSE, Strain/Sex: CF-1/FEMALE, Target Tissue: Type of Lesion: SKIN: CARCINOMA, Dose [Carcinogen]: 100 NMOL IN 0.2 ML ACETONE ONCE
  tumour outcome (control, treated, inhibition, significance): 67%, 17%, 75%, not calculated
Carcinogen: 7,12-DIMETHYLBENZ[A]ANTHRACENE, 57-97-6, 5 UMOL IN 0.4 ML ACETONE 20 MIN PRIOR TO EACH PROMOTER DOSE (STUDY DURATION: 47 WK), Route [Inhibitor]: DERMAL, Species: MOUSE, Strain/Sex: CF-1/FEMALE, Target Tissue: Type of Lesion: SKIN: PAPILLOMA, Dose [Carcinogen]: 100 NMOL IN 0.2 ML ACETONE ONCE
  tumour outcome (control, treated, inhibition, significance): 94%, 54%, 43%, not calculated
Carcinogen: 7,12-DIMETHYLBENZ[A]ANTHRACENE, 57-97-6, 100 PPM IN DIET FOR 19 WK BEGINNING POST CARCINOGEN TREATMENT (STUDY DURATION: 42 WK), Route [Inhibitor]: ORAL, Species: FISH, Strain/Sex: RAINBOW TROUT/ MALE, FEMALE, Target Tissue: Type of Lesion: STOMACH: TUMOR, Dose [Carcinogen]: 4.16 PPM IN WATER FOR 1 HR, Promoter: NONE USED
  tumour outcome (control, treated, inhibition, significance): 97%, 65%, 33%, p<0.001
Carcinogen: 7,12-DIMETHYLBENZ[A]ANTHRACENE, 57-97-6, 100 PPM IN DIET FOR 19 WK BEGINNING POST CARCINOGEN TREATMENT (STUDY DURATION: 42 WK), Route [Inhibitor]: ORAL, Species: FISH, Strain/Sex: RAINBOW TROUT/ MALE, FEMALE, Target Tissue: Type of Lesion: SWIM BLADDER: TUMOR, Dose [Carcinogen]: 4.16 PPM IN WATER FOR 1 HR, Promoter: NONE USED
  tumour outcome (control, treated, inhibition, significance): 14%, 14%, 0%, not significant
Carcinogen: 7,12-DIMETHYLBENZ[A]ANTHRACENE, 57-97-6, 250 PPM IN DIET FOR 19 WK BEGINNING POST CARCINOGEN TREATMENT (STUDY DURATION: 42 WK), Route [Inhibitor]: ORAL, Species: FISH, Strain/Sex: RAINBOW TROUT/ MALE, FEMALE, Target Tissue: Type of Lesion: LIVER: TUMOR, Dose [Carcinogen]: 4.16 PPM IN WATER FOR 1HR, Promoter: NONE USED
  tumour outcome (control, treated, inhibition, significance): 7%, 17%, -143%, p<0.001
Carcinogen: 7,12-DIMETHYLBENZ[A]ANTHRACENE, 57-97-6, 250 PPM IN DIET FOR 19 WK BEGINNING POST CARCINOGEN TREATMENT (STUDY DURATION: 42 WK), Route [Inhibitor]: ORAL, Species: FISH, Strain/Sex: RAINBOW TROUT/ MALE, FEMALE, Target Tissue: Type of Lesion: STOMACH: TUMOR, Promoter: NONE USED
  tumour outcome (control, treated, inhibition, significance): 97%, 39%, 60%, p<0.001
Carcinogen: 7,12-DIMETHYLBENZ[A]ANTHRACENE, 57-97-6, 250 PPM IN DIET FOR 19 WK BEGINNING POST CARCINOGEN TREATMENT (STUDY DURATION: 42 WK), Route [Inhibitor]: ORAL, Species: FISH, Strain/Sex: RAINBOW TROUT/MALE, FEMALE, Target Tissue: Type of Lesion: SWIM BLADDER: TUMOR, Dose [Carcinogen]: 4.16 PPM IN WATER FOR 1HR, Promoter: NONE USED
  tumour outcome (control, treated, inhibition, significance): 14%, 13%, 7%, not significant
Carcinogen: 7,12-DIMETHYLBENZ[A]ANTHRACENE, 57-97-6, 1000 PPM IN DIET FOR 17 WK BEGINNING POST CARCINOGEN TREATMENT (STUDY DURATION: 42 WK), Route [Inhibitor]: ORAL, Species: FISH, Strain/Sex: RAINBOW TROUT/ MALE, FEMALE, Target Tissue: Type of Lesion: STOMACH: TUMOR, Dose [Carcinogen]: 5.5 PPM IN WATER FOR 1 HR, Promoter: NONE USED
  tumour outcome (control, treated, inhibition, significance): 88%, 26%, 70%, p<0.001
